Measured values from US20230285405A1, “Pharmaceuticals for Treating or Preventing Nidoviruses and Picornaviruses” (priority 2020, published 2023).
Structures can show the parent of a compound that is named as a salt. Where two headings read alike, the source gives them in different places.

Experiments:
OC43 = assay: Drug screening: OC43 nucleoprotein staining in infected A549-mRuby cells; assay type: cell-based, human beta coronavirus OC43; conditions: for activity at 10 µM: Betacoronavirus 1, OC43, 96 h
Procedure: A549-mRuby cells were seeded (3,000 cells per well) in nine 384-well plates using Multidrop combi. Cells were seeded in a final volume of 30 μl with DMEM+10% BCS. The following day, 20 μl of OC43 were added (MOI 0.3) and incubated at 33° C., 5% CO2 for 1 hour. 50 nl from the Selleck FDA-approved drug library (cat #L1300, Selleck) were added (1:1,000 dilution). Two columns (32 wells) were left uninfected and two columns were treated with DMSO and virus (no drug control). Cells were imaged using the IncuCyte S3 to measure cell numbers at day 0. Cells were incubated for 4 days at 33° C., 5% CO2 and were stained for OC43 nucleoprotein. All the following steps were performed at room temperature. Cells were fixed in 50 μl 4% PFA/PBS for 15 min, blocked with 50 μl 10% BSA+0.5% Triton X-100 in PBS for 30 minutes, stained with 50 μl anti-OC43 (cat #MAB9013, Milipore) diluted 1:2,000 in 2% BSA+0.1% Triton X-100 in PBS for 1 hour, washed with 50 μl PBS three times, stained with anti-mouse-AlexaFluor488 diluted 1:1,000 in 2% BSA+0.1% Triton X-100 in PBS for 1 hour, washed with 50 μl PBS three times and imaged on the IncuCyte S3 (day 4). The screen was performed twice.
(§1) The following parameters were extracted from the images: number of cells at day 0, number of cells at day 4 and total OC43 staining intensity at day 4. For analysis, OC43 staining intensity was normalized to the number of cells in the well and further normalized to the mean of the no drug controls, which was set to 100. […] For each plate, a drug was considered as a putative hit if it reduced OC43 staining by over 3 standard deviations from the mean of the no drug controls. Drugs were considered hits if they were not toxic and reduced OC43 staining by over 3 standard deviations in both repeats.
(§2) A library of 1,900 clinically used drugs was screened, the drugs either approved for human use or having extensive safety data in humans (Phase 2 or 3 clinical trials), for their ability to inhibit OC43 infection of the human lung epithelial cell line A549 (expressing an H2B-mRuby nuclear reporter). One day after plating, cells were infected at an MOI of 0.3, incubated at 33° C. for 1 hour and drugs were added to a final concentration of 10 μM. Cells were then incubated at 33° C. for 4 days, fixed and stained for the presence of the viral nucleoprotein. The cells were imaged at day 0 (following drug addition) and day 4 (after staining) to determine the drugs effect on cell growth and OC43 infection.

A549-mRuby cells = assay: Drug screening: effect on cell growth (cell number day 4 / day 0); conditions: 10 μM drug; for Growth_1: number of cells at day 4 divided by number of cells at day 0 / toxic_1: repeat #1; for Growth_2: number of cells at day 4 divided by number of cells at day 0 / toxic_2: repeat #2
Procedure: A549-mRuby cells were seeded (3,000 cells per well) in nine 384-well plates using Multidrop combi. Cells were seeded in a final volume of 30 μl with DMEM+10% BCS. The following day, 20 μl of OC43 were added (MOI 0.3) and incubated at 33° C., 5% CO2 for 1 hour. 50 nl from the Selleck FDA-approved drug library (cat #L1300, Selleck) were added (1:1,000 dilution). Two columns (32 wells) were left uninfected and two columns were treated with DMSO and virus (no drug control). Cells were imaged using the IncuCyte S3 to measure cell numbers at day 0. Cells were incubated for 4 days at 33° C., 5% CO2 and were stained for OC43 nucleoprotein. All the following steps were performed at room temperature. […] The screen was performed twice.
as §1, §2

[1] = 10 μM drug, MOI 0.3, 4 days, OC43 staining normalized to no-drug controls, mean of the two screen repeats, read-out: OC43_mean
[2] = 10 μM drug, MOI 0.3, 4 days, normalized to no-drug controls in the same plate, repeat #1, read-out: OC43_1: % staining of OC43 in screen repeat #1
[3] = 10 μM drug, MOI 0.3, 4 days, normalized to no-drug controls in the same plate, repeat #2, read-out: OC43_2: % staining of OC43 in screen repeat #2
[4] = 10 μM drug, MOI 0.3, 4 days, OC43 staining normalized to no-drug controls, mean of the two screen repeats
[5] = 10 μM drug, MOI 0.3, 4 days, normalized to no-drug controls in the same plate, repeat #1
[6] = 10 μM drug, MOI 0.3, 4 days, normalized to no-drug controls in the same plate, repeat #2

Row | SMILES | hit_1 (OC43; 10 μM drug, repeat #1) | hit_2 (OC43; 10 μM drug, repeat #2) | activity at 10 µM (OC43; [1]) [%] | activity at 10 µM (OC43; [2]) [%] | activity at 10 µM (OC43; [3]) [%] | Growth_1: number of cells at day 4 divided by number of cells at day 0 (A549-mRuby cells) | toxic_1 (A549-mRuby cells) | Growth_2: number of cells at day 4 divided by number of cells at day 0 (A549-mRuby cells) | toxic_2 (A549-mRuby cells) | OC43_mean (OC43; [4]) [%] | OC43_1: % staining of OC43 in screen repeat #1 (OC43; [5]) [%] | OC43_2: % staining of OC43 in screen repeat #2 (OC43; [6]) [%] | activity at 10 µM (OC43; read-out: OC43_1: % staining of OC43 in screen repeat #1) [%] | activity at 10 µM (OC43; read-out: OC43_2: % staining of OC43 in screen repeat #2) [%] | activity at 10 µM (OC43; read-out: OC43_mean) [%]
1 | CCOC(=O)N[C@@H]1CC[C@@H]2[C@@H](C1)C[C@H]1C(=O)O[C@H](C)[C@H]1[C@H]2/C=C/c1ccc(-c2cccc(F)c2)cn1 [Vorapaxar] | 1 | 1 | 50.9 | 53.5 | 48.3 | 4.4 | 0 | 4.1 | 0 |  |  |  |  |  | 
2 | CCCCc1oc2ccccc2c1C(=O)c1cc(I)c(OCCN(CC)CC)c(I)c1 [Amiodarone HCl] | 1 | 1 | 22.8 | 18.8 | 26.9 | 4.6 |  | 5.4 |  |  |  |  |  |  | 
3 | Cc1cc(C(C)(C)C)cc(C)c1CC1=NCCN1 [Xylometazoline HCl] | 1 | 1 | 49.7 | 54 | 45.4 | 5.4 | 0 | 5.7 | 0 |  |  |  |  |  | 
4 | CC[C@H]1OC(=O)[C@H](C)[C@@H](O[C@H]2C[C@@](C)(OC)[C@@H](O)[C@H](C)O2)[C@H](C)[C@@H](O[C@@H]2O[C@H](C)C[C@H](N(C)C)[C@H]2O)[C@](C)(O)C[C@@H](C)CN(C)[C@H](C)[C@@H](O)[C@]1(C)O [Azithromycin] |  |  |  |  |  | 4.0 |  | 4.4 |  | 23.4 | 20.4 | 26.4 |  |  | 
5 | CCC(=O)O[C@]1(C(=O)SCF)[C@H](C)C[C@H]2[C@@H]3C[C@H](F)C4=CC(=O)C=C[C@]4(C)[C@@]3(F)[C@@H](O)C[C@@]21C [Fluticasone propionate] | 1 | 1 |  |  |  | 3.8 | 0 | 4.2 | 0 | 48.8 | 48.4 | 49.2 |  |  | 
6 | CC(C)c1nc(CN(C)C(=O)N[C@@H](CCN2CCOCC2)C(=O)N[C@H](CC[C@H](Cc2ccccc2)NC(=O)OCc2cncs2)Cc2ccccc2)cs1 [Cobicistat (GS-9350), Cobicistat] | 1 | 1 | 21.8 | 23 | 20.7 | 4.9 | 0 | 5.3 | 0 |  |  |  |  |  | 
7 | COc1ccc(NC(=O)c2ccc(C(=N)N(C)C)cc2)c(C(=O)Nc2ccc(Cl)cn2)c1 [Betrixaban] | 1 | 1 |  |  |  | 5.3 | 0 | 5.5 | 0 | 32.0 | 30.2 | 33.7 |  |  | 
8 | COc1cc(N)c(Cl)cc1C(=O)NC1CCN(CCCOc2ccc(F)cc2)CC1OC (stereo not drawn) [Cisapride] | 1 | 1 | 25.3 | 28.5 | 22.1 | 4.1 | 0 | 4.5 | 0 |  |  |  |  |  | 
9 | Cc1ccccc1C(OCCN(C)C)c1ccccc1 (stereo not drawn) [Orphenadrine Hydrochloride] | 1 | 1 | 37.6 | 11.7 | 63.6 | 4.6 | 0 | 5.1 | 0 |  |  |  |  |  | 
10 | NC(=O)C(c1ccccc1)(c1ccccc1)[C@@H]1CCN(CCc2ccc3c(c2)CCO3)C1 [Darifenacin HBr] | 1 | 1 | 24.7 | 14.6 | 34.8 | 5.2 | 0 | 3.4 | 0 |  |  |  |  |  | 
11 | CNCCCN1c2ccccc2CCc2ccccc21 [Desipramine Hydrochloride] | 1 | 1 | 21.8 | 20 | 23.7 | 4.4 | 0 | 3.9 | 0 |  |  |  |  |  | 
12 | CS(=O)(=O)CCNCc1ccc(-c2ccc3ncnc(Nc4ccc(OCc5cccc(F)c5)c(Cl)c4)c3c2)o1.Cc1ccc(S(=O)(=O)O)cc1.Cc1ccc(S(=O)(=O)O)cc1 [Lapatinib (GW-572016) Ditosylate] | 1 | 1 |  |  |  | 5.0 | 0 | 5.9 | 0 | 24.8 | 17.6 | 32.0 |  |  | 
13 | CC1(C)O[C@@H]2C[C@H]3[C@@H]4C[C@H](F)C5=CC(=O)C=C[C@]5(C)[C@@]4(F)[C@@H](O)C[C@]3(C)[C@]2(C(=O)CO)O1 [Fluocinolone Acetonide] | 1 | 1 | 45.5 | 38.9 | 52.2 | 3.5 | 0 | 4.0 | 0 |  |  |  |  |  | 
14 | CN[C@H]1C(=O)N[C@@H]2Cc3ccc(cc3)Oc3cc4cc(c3O[C@@H]3O[C@H](C(=O)O)[C@@H](O)[C@H](O)[C@H]3NC(=O)CCCCCCCCC(C)C)Oc3ccc(cc3Cl)[C@@H](O)[C@@H]3NC(=O)[C@H](NC(=O)[C@@H]4NC(=O)[C@@H](NC2=O)c2cc(cc(O)c2Cl)Oc2cc1ccc2O)c1ccc(O)c(c1)-c1c(O[C@H]2O[C@H](CO)[C@@H](O)[C@H](O)[C@@H]2O)cc(O)cc1[C@@H](C(=O)NCCCN(C)C)NC3=O [Dalbavancin] | 1 | 1 |  |  |  | 5.8 | 0 | 6.2 | 0 |  |  |  | 25.7 | 39.2 | 32.5
15 | O=C(O[C@H]1CN2CCC1CC2)N1CCc2ccccc2[C@@H]1c1ccccc1 [Solifenacin] | 1 | 1 | 25 | 20.4 | 29.6 | 4.3 | 0 | 3.4 | 0 |  |  |  |  |  | 
